# Laboratory results as given in patent publication US20050192182A1, “Herbicidal mixtures based on substituted aryl ketones” (priority 2001, published 2005).
# What was measured:
# [1] = tested on: ECHSS; assay: Test in transplanted paddy rice (greenhouse), water-surface application; assay type: in vivo, Echinochloa; details: 135 g/ha, 3 weeks after application
# From the text: (§1) Test in Transplanted Paddy Rice
# (§2) To produce a preparation of active compound, 1 part by weight of an active compound combination according to the invention is mixed with the stated amount of solvent and, after addition of the stated amount of emulsifier, diluted with water to the desired concentration.
# (§3) Vessels for planting (500 cm^2) are filled with soil from a rice field. In each case 3 rice plants (cultivar: Nipponbare, 2-3-leaf stage, height: about 15 cm) are planted into the center of the vessels for planting. Seeds of Cyperus, Echinochloa, Lindernia, Rotala and Elatine are sown into the same vessels for planting. The soil in the vessels is kept moist. After two days, each vessel for planting is flooded to a water depth of 2-3 cm.
# (§4) Five days after the transplanting of the rice plants, the amount of active compound in the preparation described above is applied to the surface of the water in the vessels for planting using a pipette. The water depth in the vessels for planting is kept at 2-3 cm.
# (§5) 3 weeks after the application of active compound, the efficacy is rated in % damage in comparison to the untreated control.
# (§6) The figures denote • 0% no effect/damage (like untreated control) • 100% total destruction
# [2] = tested on: ELTTP; assay: as above; assay type: in vivo, Elatine; details: 3 weeks after application
# From the text: as §1, §2, §3, §4, §5, §6
# [3] = tested on: CYPDI; assay: as above; assay type: in vivo, Cyperus; details: 135 g/ha, 3 weeks after application
# From the text: as §1, §2, §3, §4, §5, §6
# [4] = tested on: ROTIN; assay: as above; assay type: in vivo, Rotala; details: 3 weeks after application
# From the text: as §1, §2, §3, §4, §5, §6
# [5] = tested on: LIDPY; assay: as above; assay type: in vivo, Lindernia; details: 3 weeks after application
# From the text: as §1, §2, §3, §4, §5, §6
# [6] = tested on: Solanum nigrum; assay: Post-emergence greenhouse spray test; assay type: in vivo; details: about 3 weeks
# Procedure: (§7) The required amount of active compound or formulation is dissolved in a few milliliters (2-3 ml) of the solvent (acetone or DMF), an emulsifier (1 ml) is added, if required, and the mixture is diluted with water to the desired concentration.
# (§8) Mixtures are prepared by mixing a predetermined dissolved amount of the first active compound with the required amount of the second active compound (and, if desired, with additional active compounds/formulations or other ingredients), and then diluting the mixture with water to the desired concentration.
# (§9) In pre- and post-emergence experiments, a surfactant (Renex 36) is usually added, at a concentration of 0.1%, to the spray solution.
# (§10) The amount of active compound or formulation is chosen such that the desired application rate per ha is achieved.
# (§11) Test plants are grown under controlled conditions (temperature and light). Once the plants have reached a height of 5-15 cm, the test compound or the combination of test compounds is applied by spraying such that the particular amounts of active compound desired are applied per unit area. The concentration of the spray liquor is chosen such that the desired amounts of active compound are in each case applied in 500 1 of water/ha.
# (§12) After the spray application, the vessels containing the plants are stored in a greenhouse under constant conditions with respect to light and temperature.
# (§13) After about 3 weeks, the degree of damage to the plants is rated in % damage in comparison to the development of the untreated control.
# (§14) The figures denote: • 0%=no damage (like untreated control) • 100%=total destruction/damage • a.i.=active ingredient Flufenacet Tested as 60 WG • (I-31)/(I-34) tested as active compounds • * values calculated according to Colby
# [7] = tested on: Chenopodium album; assay: Post-emergence greenhouse spray test; assay type: in vivo; details: about 3 weeks
# Procedure: as §7, §8, §9, §10, §11, §12, §13, §14
# [8] = tested on: Abutilon theophrasti; assay: Post-emergence greenhouse spray test; assay type: in vivo; details: about 3 weeks
# Procedure: as §7, §8, §9, §10, §11, §12, §13, §14
# [9] = tested on: Amaranthus retroflexus; assay: Post-emergence greenhouse spray test; assay type: in vivo; details: about 3 weeks
# Procedure: as §7, §8, §9, §10, §11, §12, §13, §14
# [10] = tested on: Digitaria sanguinalis; assay: Post-emergence greenhouse spray test; assay type: in vivo; details: about 3 weeks
# Procedure: as §7, §8, §9, §10, §11, §12, §13, §14
smiles,measurement,setting,value
"CCN(C(=O)n1nnn(-c2ccccc2Cl)c1=O)C1CCCCC1 [fentrazamide, 4-(2-chloro-phenyl)-N-cyclohexyl-N-ethyl-4,5-dihydro-5-oxo-1H-tetrazole-1-carboxamide, reference compound]","efficacy in % damage, Compound (II) alone",[1],70%
same,"efficacy in % damage, Compound (II) alone",[2]; 135 g/ha,60%
same,"efficacy in % damage, Compound (II) alone",[3],60%
same,"efficacy in % damage, Compound (II) alone",[4]; 135 g/ha,60%
same,"efficacy in % damage, Compound (II) alone",[5]; 135 g/ha,60%
"O=C1CC[C@@H](COc2c(Br)ccc(C(=O)C3C(=O)CCCC3=O)c2Br)N1 [Example I-31, (5S)-5-[[2,6-dibromo-3-[(2,6-dioxo-1-cyclohexyl)-carbonyl]-phenoxy]-methyl]-2-pyrrolidinone]",Solanum nigrum observed (% damage),[6]; 30 g of ai/ha,10%
same,Chenopodium album observed (% damage),[7]; 15 g of ai/ha,0%
same,Chenopodium album observed (% damage),[7]; 30 g of ai/ha,20%
same,Abutilon theophrasti observed (% damage),[8]; 15 g of ai/ha,0%
same,Abutilon theophrasti observed (% damage),[8]; 30 g of ai/ha,10%
same,Amaranthus retroflexus observed (% damage),[9]; 8 g of ai/ha,0%
same,Amaranthus retroflexus observed (% damage),[9]; 15 g of ai/ha,0%
same,Amaranthus retroflexus observed (% damage),[9]; 30 g of ai/ha,0%
"O=C1CC[C@@H](COc2c(Cl)ccc(C(=O)C3C(=O)CCCC3=O)c2Cl)N1 [Example I-34, (5S)-5-[[2,6-dichloro-3-[(2,6-dioxo-1-cyclohexyl)-carbonyl]-phenoxy]-methyl]-2-pyrrolidinone]",Digitaria sanguinalis observed (% damage),[10]; 15 g of ai/ha,0%
same,Digitaria sanguinalis observed (% damage),[10]; 30 g of ai/ha,0%
same,Chenopodium album observed (% damage),[7]; 15 g of ai/ha,90%
same,Chenopodium album observed (% damage),[7]; 30 g of ai/ha,90%
same,Amaranthus retroflexus observed (% damage),[9]; 15 g of ai/ha,0%
same,Amaranthus retroflexus observed (% damage),[9]; 30 g of ai/ha,0%
"CC(C)N(C(=O)COc1nnc(C(F)(F)F)s1)c1ccc(F)cc1 [Flufenacet, N-(4-fluoro-phenyl)-N-i-propyl-2-(5-trifluoromethyl-1,3,4-thiadiazol-2-yl-oxy)-acetamide, reference compound]",Solanum nigrum observed (% damage),[6]; 125 g of ai/ha,30%
same,Digitaria sanguinalis observed (% damage),[10]; 125 g of ai/ha,70%
same,Chenopodium album observed (% damage),[7]; 125 g of ai/ha,0%
same,Abutilon theophrasti observed (% damage),[8]; 125 g of ai/ha,0%
same,Amaranthus retroflexus observed (% damage),[9]; 125 g of ai/ha,60%
"Cn1nnn(CCOc2c(Cl)ccc(C(=O)C3C(=O)CCCC3=O)c2Cl)c1=O [Example I-22, 2-[2,4-dichloro-3-[2-(4-methyl-5-oxo-4,5-dihydro-1H-tetrazol-1-yl)-ethoxy]-benzoyl]-1,3-cyclohexanedione]","efficacy in % damage, Compound (I) alone",[2]; 30 g/ha,60%
same,"efficacy in % damage, Compound (I) alone",[4]; 30 g/ha,70%
same,"efficacy in % damage, Compound (I) alone",[5]; 30 g/ha,70%
